Columns and labels:
Type in all cases: in vivo, rat
[1] = tested on: rats with chronic constriction injury (CCI) to sciatic nerve; test: Intrathecal application in CCI rats, behavioural reflex testing (PWL, PWT); conditions: for effect on contralateral responses / reversal of mechanical reflex sensitisation ipsilateral to CCI / reversal of thermal reflex sensitisation ipsilateral to CCI: 2R,4R-APDC 15 nmol, ACPT-III and AP-4 150 nmol each; for reversal of mechanical reflex sensitisation ipsilateral to CCI / reversal of thermal reflex sensitisation ipsilateral to CCI: 15-30 min post-injection
Protocol: (§1) Pain models were generated under halothane anaesthesia (Zeneca, Cheshire, UK). For the chronic constriction injury (CCI) model of neuropathic pain, four ligatures were tied loosely to constrict the sciatic nerve at mid-thigh level (as described previously^[39]). An inflammatory pain model was generated by injecting 100 μl of Complete Freund's Adjuvant (CFA, Sigma-Aldrich Ltd) into the ventral surface of the right hindpaw^[39]. A model of peripheral demyelination-induced pain was produced by focal application of lysolecithin to the sciatic nerve^[40]. Peak behavioural sensitisation was observed post-surgically between days 10-16 for CCI, 1-3 for CFA, and 7-14 for lysolecithin, when pharmacological and electrophysiological experiments and tissue removal were conducted.
(§2) Thermal sensitivity was assessed by measuring paw withdrawal latency (PWL, s) in response to a noxious thermal stimulus (Hargreaves' thermal stimulator, Linton Instrumentation, Diss, UK) directed to the hindpaw mid-plantar glabrous surface. Mechanical sensitivity was recorded as the paw withdrawal threshold (PWT, mN/mm^2) to calibrated von Frey filaments (Stoelting, Ill., US), as previously described^[39]. Sensitivity to noxious cold was assessed by placing animals in a waterbath with an aluminium floor containing 1 cm deep 4° C. water and counting the time the paw was held suspended over a 20 s period.
(§3) The following drugs were applied intrathecally in a 50 μl volume of saline-based vehicle at 37° C.: icilin (2.5-200 μM in saline with 0.2% dimethylformamide, DMF), LY 341495 (100 μM in saline), UBP 1112 (200 μM in saline), 2R,4R-APDC ((2R, 4R)-4-aminopyrrolidine-2,4-dicarboxylate), 300 μM in saline), ACPT-III ((1R,3R,4S)-1-aminocyclopentane-1,3,4-tricarboxylic acid), 3 mM in saline), AP-4, ((L-(1)-2-amino-4-phosphonobutyric acid), 3 mM in saline), naloxone (0.5 mM in saline), NMDA (75 μM in saline) and ACPC (1-aminocyclopropanecarboxylic acid, 15 μM in saline) (Tocris Cookson, Bristol, UK), (−)-menthol (1R,2S,5R-(−)-menthol, 4 mM in saline), cinnamaldehyde (1.5 mM in saline) and Ruthenium Red (5 μM in saline) (Sigma-Aldrich Co. Ltd, UK) and allicin (0.5 mM in saline with 0.5% DMF) and diallyl disulphide (DADS, 1 mM in saline with 0.5% DMF) (LKT Laboratories Inc., St Paul, Minn., USA). Drugs were injected into the L5/6 intrathecal space under brief halothane anaesthesia, using a 25-gauge needle microsyringe (BD Biosciences, Oxford, UK), as described previously^[39] in animals that were at peak levels of behavioural sensitisation. Behavioural reflex testing commenced 15 min following injection to allow recovery from anaesthesia^[40,41,42] and continued every 5 min thereafter until readings returned to baseline levels (n=6 in each case). We, and others^[40,41,42] find complete recovery from anaesthetic by 15 minutes. All appropriate controls were carried out to eliminate the possibility of effects due to vehicle or to injection procedure.
(§4) The TRPM8 channel activators, icilin and (−)-menthol were tested in CCI and naïve animals. The effects of icilin were additionally assessed in animals with CFA-induced inflammation or with lysolecithin-induced demyelination. Icilin was also co-administered with the μ-opioid receptor antagonist naloxone, the Group II metabotropic glutamate receptor (mGluR) antagonist, LY 341495, or the Group III mGluR antagonist, UBP 1112. The effects of these antagonists alone as well as effects of the Group II mGluR agonist, 2R,4R-APDC and the Group III mGluR agonists, ACPT-III and AP-4, were assessed in CCI animals. The TRPA1 channel activator, cinnamaldehyde, alone and with icilin, was tested in CCI animals and in naïve animals. Further TRPA1 channel activators, allicin and diallyl disulphide were assessed in naïve animals. Both icilin and cinnamaldehyde effects in CCI animals were also investigated in the additional presence of Ruthenium Red.

[2] = tested on: naïve rats; test: Intrathecal application in naïve rats, behavioural reflex testing (PWL, PWT); conditions: naïve animals, cinnamaldehyde 75 nmol, allicin 25 nmol, diallyl disulphide 50 mmol
Protocol: as §2, §3, §4

[3] = tested on: saphenous nerve afferents; test: Saphenous nerve afferent recordings after topical application to receptive field; conditions: resiniferatoxin 1 mM; for firing frequency after drug / increase in firing frequency: topical icilin 200 μM
From the text: (§5) Antisense and mis-sense oligonucleotides were 22-mers with phosphorothioate bonds at the last two positions at 5′ and 3′ ends (MWG Biotech, Ebersberg, Germany). Antisense extended from base −10 to base +12 relative to the start of the open reading frame for the rat TRPM8 gene: 5′ C*T*CGAAGGACATCTTGCCGT*G*G 3′, where * represents phosphorothioate linkages. Mis-sense was designed with 4 inversions of C/G or A/T as appropriate at residues 3, 11, 14 and 22, preserving overall G/C content. BLAST searches of both oligonucleotides indicated no significant complementarity to any known gene sequence. 14-day or 7-day osmotic minipumps (for CCI experiments or naïve electrophysiology experiments respectively—Alzet Minipump, models 2002, 2001; Charles River, UK) containing oligonucleotides (1 μg/μl in sterile saline) were connected to canulae inserted under the dura of the spinal cord to level L5/6 and produced a predicted infusion rate of 0.5 μl/h. CCI surgery was performed at the same time as minipump implantation. Sensory tests were carried out to assess the time-course of behavioural sensitisation in animals which had also undergone a CCI injury. Icilin was applied topically rather than intrathecally so as to prevent any interference with the infusion canula. Peripheral nerve recordings and tissue harvesting were carried out after an interval of 4-5 days to allow time for protein knockdown.
Peripheral: Recordings of saphenous (sensory) nerve were made in naïve animals (n=7) to assess the effects of topical icilin on primary afferents. In addition, recordings were carried out on animals which had undergone TRPM8 antisense or mis-sense treatment beginning 4-5 days previously. Rats were anaesthetised (with 0.6 ml 25% urethane/100 g, i.p.) and the saphenous nerve was exposed and dissected from its associated vein and artery. Further dissection under liquid paraffin enabled identification of afferent preparations comprising a small number of fibres. The conduction velocity of single identified afferent fibres was determined using bipolar electrodes and the peripheral stimulus technique^[43]. Following isolation of preparations, icilin (200 μM in water with 0.2% DMF), (−)-menthol (4 mM in 25% ethanol) resiniferatoxin (1 mM in ethanol) or vehicle alone were applied to the hindlimb receptive fields and neuronal responses recorded using the Chart programme (version 3.6). Central: Recordings of spinal dorsal horn neurons were made in CCI animals, as described previously^[39]. Following halothane induction, the jugular vein and trachea were canulated and intravenous anaesthetic delivered: α-chloralose ([…], Fisher) and urethane ([…], Sigma), with small supplementary doses of α-chloralose as required throughout the experiment. Core body temperature was maintained at 37-38° C. by means of a thermostatically controlled heated blanket. The animal was placed in a stereotaxic frame, and the thoracolumbar spinal column was supported using three pairs of swan-necked clamps. A laminectomy was performed at L2-L5, and agar (2% in saline at 37° C.) was delivered over exposed cord to increase mechanical stability. Above the recording region the agar and spinal cord dura were removed and liquid paraffin poured into the pool. Extracellular recordings were made from single multireceptive neurons in laminae I-IV through the centre barrel of a seven-barrelled glass microelectrode filled with 4M NaCl (tip-diameter […], DC resistance 5-8 MΩ). The receptive fields of hair-follicle innervated neurons on the distal hindlimb were identified by an innocuous brush stimulus^[39]. Icilin (200 μM in water with 0.2% DMF) was applied peripherally to the receptive field of individual recorded neurons, and the effect on neuronal response to a rotating brush was recorded and analysed using Spike2 programme (Version 3.2, CED). […]

[4] = tested on: rats with chronic constriction injury (CCI) to sciatic nerve; test: Topical application to paws of CCI rats, behavioural reflex testing (thermal PWL, mechanical PWT); conditions: for reversal of sensitised responses: topical, (−)-menthol 4 mM, isomenthol and (+)-menthol 8 mM and 16 mM; for analgesia, thermal hyperalgesia (Hargreaves' test): 30 μM topical, CCI model
Protocol: as §1, §2
Icilin was applied at concentrations of 2.5-500 μM (in water with 0.2% DMF), by placing CCI or naïve rats unrestrained for 5 min in a 1 cm deep waterbath (sufficient to cover paws), which was thermostatically controlled to a temperature of 30° C., or by very lightly anaesthetising rats and immersing hindpaws in small tubes containing 5 ml icilin (500 μM-5 mM, with a vehicle of 45% dimethylformamide in 0.2% aqueous Tween 80) for 5 min, followed by sensory testing for 60-80 mins. The effects of (−)-menthol and its stereoisomers isomenthol (1S,2R,5R-menthol,) and (+)-menthol (1S,2R,5S(+)-menthol) (4-16 mM in 80% ethanol) were also assessed. Relevant vehicles were always assessed in similar experiments. As a contrast, the effect of cinnamaldehyde (1.5 mM in water) and the effect of cinnamaldehyde with additional icilin (80 μM in water with 0.2% DMF) were assessed in naïve animals. The effects of icilin (80 μM) were further assessed in CCI animals that had undergone antisense and mis-sense treatment for knockdown of TRPM8 or immediately following intrathecal injection of either LY 341495 or UBP 1112. […] The effects of brief paw immersion at different temperatures (10-22° C. for 5 min) on CCI rats were assessed by mechanical testing. The effects of intrathecal LY 341495 or UBP 1112 on the reversal of ipsilateral sensitisation in CCI following a 16° C. cool challenge for 5 min were measured. Reflex testing commenced 5 minutes following challenge, unless animals had been anaesthetised, in which case 15 minutes was allowed for recovery. Six replicate animals were tested in all pharmacological experiments.
as §5, with “CCI surgery was performed at the same time as minipump implantation. Sensory tests were carried out to assess the time-course of behavioural sensitisation in animals which had also undergone a CCI injury. Icilin was applied topically rather than intrathecally so as to prevent any interference with the infusion canula. Peripheral nerve recordings and tissue harvesting were carried out after an interval of 4-5 days to allow time for protein knockdown.” left out

[5] = mis-sense-treated animals, (−)-menthol 4 mM

C=CCN1CC[C@]23c4c5ccc(O)c4O[C@H]2C(=O)CC[C@@]3(O)[C@H]1C5 [naloxone]
effect on icilin analgesia ([1]; naloxone 25 nmol intrathecal co-administration with icilin): had no effect

C=CCS[S+]([O-])CC=C (centres unmarked) [allicin]
reduction in PWL [2]: 33.2±5.9% | reduction in PWT [2]: 20.7±8.2%

C=C(C)[C@]12C[C@@H](C)[C@@]34O[C@](Cc5ccccc5)(O[C@@H]1[C@@H]3C=C(COC(=O)Cc1ccc(O)c(OC)c1)C[C@]1(O)C(=O)C(C)=C[C@@H]41)O2 [resiniferatoxin]
afferents activated out of 28 recorded ([3]; antisense-treated animals): 16 | firing frequency after drug ([3]; antisense-treated animals, (−)-menthol 4 mM): 25.9±1.8 Hz | increase in firing frequency ([3]; antisense-treated animals): 6 fold | firing frequency after drug [3, 5]: 24.8±3.1 Hz | increase in firing frequency [3, 5]: 5 fold

CC1CC[C@H](C(C)C)[C@@H](O)C1 (single isomer, unassigned; (+)) [(+)-menthol]
reversal of sensitised responses [4]: produced reversal of sensitised responses

COc1ccccc1N1CC=C(c2cccc([N+](=O)[O-])c2)NC1=O [methoxy-icilin, 1-(2′-methoxyphenyl)-4-(3″-nitrophenyl)-1,2,3,6-tetrahydropyrimidin-2-one]
analgesia, thermal hyperalgesia (Hargreaves' test) [4]: causes analgesia

CC(C)[C@H]1CC[C@@H](C)C[C@@H]1O [isomenthol, 1S,2R,5R-menthol]
reversal of sensitised responses [4]: produced reversal of sensitised responses

COc1ccc(NC(=O)C2CC(C)CCC2C(C)C)cc1 (centres unmarked) [WS-12, 2-isopropyl-5-methyl-cyclohexanecarboxylic acid (4-methoxyphenyl)amide]
analgesia, thermal hyperalgesia (Hargreaves' test) [4]: causes analgesia

N[C@@]1(C(=O)O)CN[C@@H](C(=O)O)C1 [2R,4R-APDC, (2R, 4R)-4-aminopyrrolidine-2,4-dicarboxylate]
effect on contralateral responses ([1]; intrathecal): no effect on contralateral responses | reversal of mechanical reflex sensitisation ipsilateral to CCI ([1]; intrathecal): 56.0±10.9% | reversal of thermal reflex sensitisation ipsilateral to CCI ([1]; intrathecal): 72.1±6.4%

N.N.N.N.N.N.N.N.N.N.N.N.N.N.[Cl-].[Cl-].[Cl-].[Cl-].[Cl-].[Cl-].[O-2].[O-2].[Ru+3].[Ru+3].[Ru+4] [Ruthenium Red]
effect on analgesic effect of intrathecally-injected icilin ([1]; Ruthenium Red 0.25 nmol with icilin 10 nmol): unaffected | effect on sensitising effects of cinnamaldehyde ([1]; co-injection of Ruthenium Red 0.25 nmol with cinnamaldehyde 75 nmol, intrathecal): prevented

N[C@@H](CCP(=O)(O)O)C(=O)O [AP-4, L-(1)-2-amino-4-phosphonobutyric acid]
effect on contralateral responses ([1]; intrathecal): no effects contralaterally | reversal of mechanical reflex sensitisation ipsilateral to CCI ([1]; intrathecal): 60.7±8.0% | reversal of thermal reflex sensitisation ipsilateral to CCI ([1]; intrathecal): 60.8±6.7%

N[C@]1(C(=O)O)C[C@H](C(=O)O)[C@H](C(=O)O)C1 [ACPT-III, (1R,3R,4S)-1-aminocyclopentane-1,3,4-tricarboxylic acid]
effect on contralateral responses ([1]; intrathecal): no effects contralaterally | reversal of mechanical reflex sensitisation ipsilateral to CCI ([1]; intrathecal): 65.7±11.4% | reversal of thermal reflex sensitisation ipsilateral to CCI ([1]; intrathecal): 83.6±6.3%

— patent publication US20100137344A1, “INDUCTION OF ANALGESIA IN NEUROPATHIC PAIN” (University Court of the University of Edinburgh, priority 2006, published 2010)
